# Measured values: patent US20240325409A1, “Fused Heterotetracyclic Antiviral Agents” (Enanta Pharmaceuticals, Inc., priority 2023, published 2024)
# Tested on: HBV
# Assay: HBV infection of HepG2-NTCP cells, HBeAg AlphaLISA readout
# Assay type: cell-based
# Conditions: Hepatitis B virus, 192 h, 2000 GE/cell, HBeAg in supernatant at day 8 post infection, 50% reduction relative to DMSO controls, read-out: Cellular EC50
# Experimental: (§1) HepG2-NTCP A3 cells were maintained in DMEM media supplemented with GlutaMAX™, 10% fetal bovine serum, 1% penicillin/streptomycin, and 5 ug/mL puromycin at 37° C. in a humidified atmosphere with 5% CO2 in a collagen-coated tissue culture flask.
# HepG2-NTCP cells were seeded in 384 well plate containing 16,000 cells/well two days prior to the infection. On the day of infection, compounds were 3-fold serially diluted in DMSO and pre-incubated with HepG2-NTCP cells for two hours before purified HBV addition. HBV infection was carried out at 2000 GE/cell with 4% PEG, and the final concentration of DMSO is 0.5%. On day one post infection, HBV-containing media was aspirated, cells were washed once with PBS and then maintained in 2.5% DMSO containing media for the remainder of the assay.
# Supernatants from infected HepG2-NTCP cells were collected at day 8 post infection, and the amount of viral antigen HBeAg was measured by HBeAg AlphaLISA detection kit (PerkinElmer) following the manufacturer's recommended protocol. Irrespective of readout, compound concentrations that reduce viral product accumulation in supernatants by 50% relative to DMSO controls (EC50) are reported. EC50 ranges are as follows: A<0.1 µM; B 0.1-1 µM; C>1 µM.
row,SMILES,EC50 [nM]
1,"CCCC[C@@H]1CN(c2ccccc2)c2cc3c(cc2S(=O)(=O)N1C)-c1cc(C(=O)O)ccc1OCCO3 [Example 35, (R)-12-butyl-13-methyl-10-phenyl-6,7,10,11,12,13-hexahydrobenzo[7′,8′][1,4]dioxocino[6′,5′:4,5]benzo[1,2-f][1,2,5]thiadiazepine-2-carboxylic acid 14,14-dioxide]",100 to 1000
2,CC(C)C[C@@H]1CN(C2CCC2)c2cc3c(cc2S(=O)(=O)N1C)-c1cc(C(=O)O)c(F)c(F)c1CO3 [Example 39],100 to 1000
3,COC(C)(C)CN1C[C@@H](CC(C)C)N(C)S(=O)(=O)c2cc3c(cc21)OCc1c-3cc(C(=O)O)c(F)c1F [Example 40],100 to 1000

# Now from value to compound:
row,EC50 [nM],SMILES
1,100 to 1000,"CN1[C@H](C2CCC2)CN(c2ccccc2)c2cc3c(cc2S1(=O)=O)-c1cc(C(=O)O)ccc1CO3 [Example 1, (R)-10-cyclobutyl-11-methyl-8-phenyl-8,9,10,11-tetrahydro-5H-benzo[3,4]chromeno[7,6-f][1,2,5]thiadiazepine-2-carboxylic acid 12,12-dioxide]"
2,< 100,"CN1[C@H](C2CCC2)CN(c2ccccc2)c2cc3c(cc2S1(=O)=O)-c1sc(C(=O)O)cc1CO3 [Example 36, (R)-9-cyclobutyl-10-methyl-7-phenyl-7,8,9,10-tetrahydro-4H-thieno[3′,2′:3,4]chromeno[7,6-f][1,2,5]thiadiazepine-2-carboxylic acid 11,11-dioxide]"
3,< 100,CCCN1C[C@@H](CC(C)C)N(C)S(=O)(=O)c2cc3c(cc21)OCc1c-3cc(C(=O)O)c(F)c1F [Example 37]
4,< 100,CC(C)C[C@@H]1CN(C2CC3(CCC3)C2)c2cc3c(cc2S(=O)(=O)N1C)-c1cc(C(=O)O)c(F)c(F)c1CO3 [Example 38]

# Tested on: HDV
# Assay: HDV infection of HepG2-NTCP cells, viral RNA by RT-qPCR
# Assay type: cell-based
# Conditions: 288 h, 800 GE/cell, viral RNA at day 12 post infection, 50% reduction relative to DMSO controls, read-out: Cellular EC50
# Experimental: as §1
# HDV virus collected from the supernatants of HuH7-END cells was purified in the presence of 6% polyethylene glycol (PEG). Viral titer was then quantified by RT-qPCR using HDV specific primers against a reference standard. For HDV infection, HepG2-NTCP cells were seeded in 96-well plates at 60,000 cells/well. On the day of infection, compounds were 4-fold serially diluted in DMSO and pre-incubated with HepG2-NTCP cells for two hours before infecting with 800 GE/cell of HDV in 4% PEG. On day one post infection, HDV-containing media was aspirated, cells were washed once with PBS and then maintained in 2.5% DMSO containing media for the remainder of the assay. Viral RNA was isolated using RNeasy kits (Qiagen) at day 12 post infection and reverse transcribed into cDNA using High-Capacity RNA-to-cDNA Kit (Thermo Fisher). Relative HDV gene expression was quantified by RT-qPCR after normalization to expression of a housekeeping gene. Irrespective of readout, compound concentrations that reduce viral RNA by 50% relative to DMSO controls (EC50) are reported. EC50 ranges are as follows: A<0.1 µM; B 0.1-1 µM; C>1 µM.
row,EC50 [nM],SMILES
1,< 100,"CN1[C@H](C2CCC2)CN(c2ccccc2)c2cc3c(cc2S1(=O)=O)-c1cc(C(=O)O)ccc1CO3 [Example 1, (R)-10-cyclobutyl-11-methyl-8-phenyl-8,9,10,11-tetrahydro-5H-benzo[3,4]chromeno[7,6-f][1,2,5]thiadiazepine-2-carboxylic acid 12,12-dioxide]"
